Measurements as given in the supplement of paper PMC11061612.

What was measured:
[1] = tested on: LC-1-sq (Squamous Cell Lung Carcinoma); assay: combination Emax (second highest fraction inhibited in the dose matrix, 72 h); higher = more inhibition; extreme values may be limits of the assay
Summary of the method: (§1)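 After 24 hours at 37°C and 5% CO2 in 1536-well plates, cells in DMEM/F12 or RPMI plus 10% FBS received two-drug dose matrices for 72 hours. Viability came from CellTiter-Glo 2.0 luminescence and was scaled as inhibition, anchored at 0 by vehicle wells and at 1 by blank wells. Combination Emax is taken as the second-highest inhibition in the matrix, and Bliss excess as the observed combination effect less EA + EB − EA·EB, with EA and EB the single-agent effects.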

EW-1 (Ewing's Sarcoma) = assay: as above
Summary of the method: as §1

[2] = tested on: EJM (Plasma Cell Myeloma); assay: as above
Summary of the method: as §1

[3] = tested on: NCI-H2122 (Lung Adenocarcinoma); assay: as above
Summary of the method: as §1

[4] = tested on: OACM5-1 (Esophageal Adenocarcinoma); assay: as above
Summary of the method: as §1

[5] = tested on: CADO-ES1 (Ewing's Sarcoma); assay: as above
Summary of the method: as §1

[6] = tested on: HCC2998 (Colorectal Carcinoma); assay: as above
Summary of the method: as §1

[7] = tested on: HCC1937 (Breast Carcinoma); assay: as above
Summary of the method: as §1

[8] = tested on: SK-LU-1 (Lung Adenocarcinoma); assay: as above
Summary of the method: as §1

[9] = tested on: NCI-H650 (Lung Adenocarcinoma); assay: as above
Summary of the method: as §1

[10] = tested on: KOPN-8 (B-Lymphoblastic Leukemia); assay: as above
Summary of the method: as §1

[11] = tested on: NCI-H1838 (Lung Adenocarcinoma); assay: as above
Summary of the method: as §1

[12] = tested on: G-401 (Other Solid Carcinomas); assay: as above
Summary of the method: as §1

[13] = tested on: NCI-H1092 (Small Cell Lung Carcinoma); assay: as above
Summary of the method: as §1

[14] = tested on: EJM (Plasma Cell Myeloma); assay: Bliss excess, mean over the matrix (fraction); higher = more synergy
Summary of the method: as §1

Hey (Ovarian Carcinoma) = assay: as above
Summary of the method: as §1

[15] = tested on: KOPN-8 (B-Lymphoblastic Leukemia); assay: as above
Summary of the method: as §1

[16] = tested on: NCI-H1838 (Lung Adenocarcinoma); assay: as above
Summary of the method: as §1

[17] = tested on: G-401 (Other Solid Carcinomas); assay: as above
Summary of the method: as §1

[18] = tested on: HCC1500 (Breast Carcinoma); assay: as above
Summary of the method: as §1
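Throughout, for Bliss excess, mean over the matrix: after 72 h of two-drug dosing.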

SMILES: CN(CCO)CC[C@H](CSc1ccccc1)Nc1ccc(S(=O)(=O)NC(=O)c2ccc(N3CCC([C@@H](O)c4ccccc4-c4ccc(Cl)cc4)CC3)cc2)cc1S(=O)(=O)C(F)(F)F [AZD4320] + CCN(CCO)CCCOc1ccc2c(Nc3cc(CC(=O)Nc4cccc(F)c4)[nH]n3)ncnc2c1 [AZD2811] (first compound max 1 µM, 7x7, partner max 1 µM)
- combination Emax [1]: 0.264
- combination Emax (EW-1 (Ewing's Sarcoma)): 0.863
- combination Emax [2]: 0.406
- combination Emax [3]: 0.794
- combination Emax [4]: 0.398
- combination Emax [5]: 0.668
- combination Emax [6]: 0.753
- combination Emax [7]: 0.489
- combination Emax [8]: 0.281
- combination Emax [9]: 0.157
- combination Emax [10]: 0.963
- combination Emax [11]: 0.216
- combination Emax [12]: 0.517
- combination Emax [13]: 0.866
- Bliss excess [14]: 0.0454
- Bliss excess (Hey (Ovarian Carcinoma)): -0.0022
- Bliss excess [15]: -0.0249
- Bliss excess [16]: 0.0003
- Bliss excess [17]: 0.0082
- Bliss excess [18]: 0.0758

SMILES: CN(CCO)CC[C@H](CSc1ccccc1)Nc1ccc(S(=O)(=O)NC(=O)c2ccc(N3CCC([C@@H](O)c4ccccc4-c4ccc(Cl)cc4)CC3)cc2)cc1S(=O)(=O)C(F)(F)F [AZD4320] + C[C@@H]1COCCN1C2=NC(=NC(=C2)C3(CC3)[S@](=N)(=O)C)C4=C5C=CNC5=NC=C4 [AZD6738] (first compound max 1 µM, 7x7, partner max 10 µM)
- combination Emax [1]: 0.845
- combination Emax (EW-1 (Ewing's Sarcoma)): 0.997
- combination Emax [2]: 0.929
- combination Emax [3]: 0.972
- combination Emax [4]: 0.663
- combination Emax [5]: 0.939
- combination Emax [6]: 0.968
- combination Emax [7]: 0.761
- combination Emax [8]: 0.663
- combination Emax [9]: 0.415
- combination Emax [10]: 0.995
- combination Emax [11]: 0.694
- combination Emax [12]: 0.742
- combination Emax [13]: 0.915
- Bliss excess [14]: 0.0488
- Bliss excess (Hey (Ovarian Carcinoma)): -0.0697
- Bliss excess [15]: -0.0246
- Bliss excess [16]: -0.0445
- Bliss excess [17]: -0.0287
- Bliss excess [18]: 0.0444

SMILES: CN(CCO)CC[C@H](CSc1ccccc1)Nc1ccc(S(=O)(=O)NC(=O)c2ccc(N3CCC([C@@H](O)c4ccccc4-c4ccc(Cl)cc4)CC3)cc2)cc1S(=O)(=O)C(F)(F)F [AZD4320] + Cc1cc2ncnn2cc1Nc1ncc2c(n1)n(C1CCOCC1)c(=O)n2C [AZD7648] (first compound max 1 µM, 7x7, partner max 10 µM)
- combination Emax [1]: 0.158
- combination Emax (EW-1 (Ewing's Sarcoma)): 0.745
- combination Emax [2]: 0.382
- combination Emax [3]: 0.273
- combination Emax [4]: 0.577
- combination Emax [5]: 0.608
- combination Emax [6]: 0.492
- combination Emax [7]: 0.29
- combination Emax [8]: 0.421
- combination Emax [9]: 0.134
- combination Emax [10]: 0.88
- combination Emax [11]: 0.289
- combination Emax [12]: 0.424
- combination Emax [13]: 0.855
- Bliss excess [14]: 0.0347
- Bliss excess (Hey (Ovarian Carcinoma)): -0.0728
- Bliss excess [15]: -0.0243
- Bliss excess [16]: -0.0291
- Bliss excess [17]: -0.0392
- Bliss excess [18]: -0.0027

SMILES: Cc1c2c(nn1C)CSCc1cc(n(C)n1)CSc1cc(c3ccccc3c1)OCCCc1c(C(=O)O)n(C)c3c-2c(Cl)ccc13 [AZD5991] + Cn1cnc2c(F)c(Nc3ccc(Br)cc3Cl)c(C(=O)NOCCO)cc21 [Selumetinib] (first compound max 1 µM, 7x7, partner max 3 µM)
- combination Emax [1]: 0.311
- combination Emax (EW-1 (Ewing's Sarcoma)): 0.273
- combination Emax [2]: 0.983
- combination Emax [3]: 0.935
- combination Emax [4]: 0.94
- combination Emax [5]: 0.874
- combination Emax [6]: 0.998
- combination Emax [7]: 0.464
- combination Emax [8]: 0.476
- combination Emax [9]: 0.432
- combination Emax [10]: 1
- combination Emax [11]: 0.511
- combination Emax [12]: 0.474
- combination Emax [13]: 0.608
- Bliss excess [14]: 0.0088
- Bliss excess (Hey (Ovarian Carcinoma)): -0.0033
- Bliss excess [15]: 0.0258
- Bliss excess [16]: 0.003
- Bliss excess [17]: -0.0039
- Bliss excess [18]: 0.0093

SMILES: Cc1cc2ncnn2cc1Nc1ncc2c(n1)n(C1CCOCC1)c(=O)n2C [AZD7648] + O=C(c1cc(Cc2n[nH]c(=O)c3ccccc23)ccc1F)N1CCN(C(=O)C2CC2)CC1 [Olaparib] (first compound max 10 µM, 7x7, partner max 10 µM)
- combination Emax [1]: 0.17
- combination Emax (EW-1 (Ewing's Sarcoma)): 0.732
- combination Emax [2]: 0.2
- combination Emax [3]: 0.242
- combination Emax [4]: 0.267
- combination Emax [5]: 0.548
- combination Emax [6]: 0.321
- combination Emax [7]: 0.154
- combination Emax [8]: 0.329
- combination Emax [9]: 0.14
- combination Emax [10]: 0.68
- combination Emax [11]: 0.323
- combination Emax [12]: 0.434
- combination Emax [13]: 0.111
- Bliss excess [14]: -0.0369
- Bliss excess (Hey (Ovarian Carcinoma)): -0.0088
- Bliss excess [15]: 0.0196
- Bliss excess [16]: -0.0808
- Bliss excess [17]: -0.0308
- Bliss excess [18]: -0.0234

SMILES: Cc1nc(Nc2ncc(C(=O)Nc3c(C)cccc3Cl)s2)cc(N2CCN(CCO)CC2)n1 [Dasatinib] + CC(=O)Nc1cccc(-n2c(=O)n(C3CC3)c(=O)c3c(Nc4ccc(I)cc4F)n(C)c(=O)c(C)c32)c1 [Trametinib] (first compound max 2 µM, 7x7, partner max 1 µM)
- combination Emax [1]: 0.166
- combination Emax (EW-1 (Ewing's Sarcoma)): 0.153
- combination Emax [2]: 0.153
- combination Emax [3]: 0.942
- combination Emax [4]: 0.417
- combination Emax [5]: 0.151
- combination Emax [6]: 1
- combination Emax [7]: 0.5
- combination Emax [8]: 0.511
- combination Emax [9]: 0.747
- combination Emax [10]: 0.545
- combination Emax [11]: 0.367
- combination Emax [12]: 0.903
- combination Emax [13]: 0.125
- Bliss excess [14]: -0.0342
- Bliss excess (Hey (Ovarian Carcinoma)): 0.001
- Bliss excess [15]: -0.188
- Bliss excess [16]: -0.0793
- Bliss excess [17]: -0.0089
- Bliss excess [18]: -0.0599

SMILES: COc1cc2ncnc(Nc3ccc(F)c(Cl)c3)c2cc1OCCCN1CCOCC1 [Gefitinib] + CC(C)n1c(=O)n(C)c2cnc3cc(F)c(-c4ccc(OCCCN5CCCCC5)nc4)cc3c21 [AZD1390] (first compound max 10 µM, 7x7, partner max 0.3 µM)
- combination Emax [1]: 0.265
- combination Emax (EW-1 (Ewing's Sarcoma)): 0.344
- combination Emax [2]: 0.133
- combination Emax [3]: 0.626
- combination Emax [4]: 0.191
- combination Emax [5]: 0.123
- combination Emax [6]: 0.105
- combination Emax [7]: 0.272
- combination Emax [8]: 0.245
- combination Emax [9]: 0.106
- combination Emax [10]: 0.241
- combination Emax [11]: 0.19
- combination Emax [12]: 0.404
- combination Emax [13]: 0.0586
- Bliss excess [14]: -0.0395
- Bliss excess (Hey (Ovarian Carcinoma)): -0.0573
- Bliss excess [15]: -0.0725
- Bliss excess [16]: -0.103
- Bliss excess [17]: -0.0446
- Bliss excess [18]: -0.0338

SMILES: C[C@@H](c1ccc2nccn2c1)n1nnc2ncc(-c3cnn(C)c3)nc21 [Savolitinib] + CC1(C)CCC(CN2CCN(c3ccc(C(=O)NS(=O)(=O)c4ccc(NCC5CCOCC5)c([N+](=O)[O-])c4)c(Oc4cnc5[nH]ccc5c4)c3)CC2)=C(c2ccc(Cl)cc2)C1 [Venetoclax] (first compound max 1 µM, 7x7, partner max 1 µM)
- combination Emax [1]: 0.116
- combination Emax (EW-1 (Ewing's Sarcoma)): 0.112
- combination Emax [2]: 0.232
- combination Emax [3]: 0.196
- combination Emax [4]: 0.166
- combination Emax [5]: 0.695
- combination Emax [6]: 0.105
- combination Emax [7]: 0.165
- combination Emax [8]: 0.273
- combination Emax [9]: 0.0996
- combination Emax [10]: 0.743
- combination Emax [11]: 0.146
- combination Emax [12]: 0.104
- combination Emax [13]: 0.248
- Bliss excess [14]: -0.0127
- Bliss excess (Hey (Ovarian Carcinoma)): -0.0651
- Bliss excess [15]: 0.0298
- Bliss excess [16]: -0.049
- Bliss excess [17]: -0.0528
- Bliss excess [18]: -0.008

SMILES: C[C@@H](c1ccc2nccn2c1)n1nnc2ncc(-c3cnn(C)c3)nc21 [Savolitinib] + Cc1c2c(nn1C)CSCc1cc(n(C)n1)CSc1cc(c3ccccc3c1)OCCCc1c(C(=O)O)n(C)c3c-2c(Cl)ccc13 [AZD5991] (first compound max 1 µM, 7x7, partner max 1 µM)
- combination Emax [1]: 0.278
- combination Emax (EW-1 (Ewing's Sarcoma)): 0.2
- combination Emax [2]: 0.232
- combination Emax [3]: 0.64
- combination Emax [4]: 0.896
- combination Emax [5]: 0.346
- combination Emax [6]: 0.454
- combination Emax [7]: 0.182
- combination Emax [8]: 0.329
- combination Emax [9]: 0.2
- combination Emax [10]: 0.844
- combination Emax [11]: 0.28
- combination Emax [12]: 0.295
- combination Emax [13]: 0.46
- Bliss excess [14]: 0.0066
- Bliss excess (Hey (Ovarian Carcinoma)): -0.0321
- Bliss excess [15]: 0.0789
- Bliss excess [16]: 0.0218
- Bliss excess [17]: -0.0047
- Bliss excess [18]: -0.001
